The subject of data set [1] is enterococci. Description: antimicrobial spectrum assay. The class given is cell-based. To be noted: comparison of mutacin I and mutacin III.
Data set [2] relates to pneumococci. Description: antimicrobial spectrum assay. The format is cell-based. Conditions: comparison of mutacin I and mutacin III.
The test system of data set [3] is Group A streptococci. Description: antimicrobial spectrum assay. The class given is cell-based. Conditions: comparison of mutacin I and mutacin III.
A short description of data set [4]: reverse-phase HPLC analysis (hydrophobicity). The class given is physicochemical. Conditions: from acetonitrile concentration at elution. From the text:
For purification, the crude extract of mutacin I (SEQ ID No: 2) was applied to a Source 15RPC column and eluted with a fragmented gradient A (0.1% TFA) and B (0.085% TFA in 60% acetonitrile) using a LKB Purifier (Amersham Pharmacia Biotech, Piscataway, N.J.). The active fractions were pooled and dried in a lyophilizer. The pellet was redissolved in 0.25% TFA and subjected to a second round purification using a fragmented gradient of buffer A (0.1% TFA) and B (0.085% TFA in 80% methanol). The single active peak fraction was collected, dried in a lyophilizer, and used for sequence analysis and electrospray ionization mass spectrometry (EIMS).

Data set [5] has as its system gram-positive bacteria including the multidrug-resistant Staphylococci and Enterococci. As to the kind of experiment: spectrum of antimicrobial activity. The class given is cell-based.

With “mutacin I: lantibiotic from Streptococcus mutans CH43, twenty-four amino acids in its mature form, approximately 2364 Da (FSSLSLCSLGCTGVKNPSFNSYCC)”, the “pH range of activity” value was “works in a wide range of pH”. Also, the antimicrobial activity result in data set [1] is recorded as “equal activities”. Besides, in data set [2], the antimicrobial activity result is “equal activities”. The antimicrobial activity entry in data set [3] is reported as “equal activities”. For the same substance, the hydrophobicity result in data set [4] is “more hydrophobic than mutacin III”. In addition, in data set [5], the “resistance of sensitive bacteria” value was “resistance to mutacin has not been observed” and the “spectrum of antimicrobial activity” value is reported as “wide spectrum of antimicrobial activity”.

The values are drawn from US6699970B2, “Mutacin I biosynthesis genes and proteins” (priority 2000, dated 2004).
